The text below walks through data of patent US20230365899A1, “COMPOSITIONS COMPRISING BLEACHING CATALYST, MANUFACTURING PROCESS THEREOF, AND BLEACHING AND CLEANING AGENT COMPRISING SAME” (WEYLCHEM PERFORMANCE PRODUCTS GMBH, priority 2020, published 2023).

Data set [1] can be described thus: Reference granulation: stability of catalyst/PVOH mixture in water and on fluidised bed drying. It is filed as physicochemical. How it is done: Similar to the process described above for granules 1-7, an aqueous solution of [Mn2(μ-O)3(Me3TACN)2](PF6)2·H2O in water and PVOH were mixed together with the other components to make the granule (corn starch and CaSO4). As the solubility of [Mn2(μ-O)3(Me3TACN)2](PF6)2·H2O in water is relatively low (1.08 wt-% in water at 20° C.—see WO2006/125517), a large amount of water needed to be added to obtain a mixture that has enough of the [Mn2(μ-O)3(Me3TACN)2](PF6)2·H2O catalyst to yield a granule comprising 2 wt-% of [Mn2(μ-O)3(Me3TACN)2](PF6)2·H2O (this would equate to 1.85 L of the aqueous solution of [Mn2(μ-O)3(Me3TACN)2](PF6)2·H2O following the same amounts of chemicals as described in the examples above).
Second observation was that the mixture of the [Mn2(μ-O)3(Me3TACN)2](PF6)2·H2O and PVOH in water was not stable.

Data set [2] can be described thus: BC-1 (tea stain on cotton) bleaching. The following applies: pH 11.5, 1 g/L sodium percarbonate, 40° C., 30 min, Table 3. On the procedure:
BC-1 (tea stain on cotton) bleaching experiments were carried similarly as described in WO2014/202954. All bleaching experiments were done in duplication.
BC-1 (tea stain on cotton) bleaching was assessed at pH 11.5 in an aqueous solution containing 1 g/L nonionic formulation (Lutensol A07), 0, 1 and 2 μM [Mn2(μ-O)2(μ-CH3COO)(Me4DTNE)]Cl2), 1 g/L sodium percarbonate at 40° C. for 30 min (reference test).
Similarly, the bleaching activity of granule 9 was assessed using the same protocol, except for dissolving granule 9 in demineralised water yielding the same concentrations of catalyst as used in the reference test.

The conditions of data set [3]: cited from earlier work.

As to `CN1CCN(C)CCN(C)CC1.CN1CCN(C)CCN(C)CC1.O=S(=O)([O-])[O-].[Mn+4].[Mn+4].[O-2].[O-2].[O-2]` [MnTACNSO4, [Mn2(μ-O)3(Me3TACN)2]SO4], the “time the mixture of catalyst and PVOH in solution remained stable” value in data set [1] (room temperature) is on record as “at least 4 days”.
With `CC(=O)[O-].CN1CCN(C)CCN(CCN2CCN(C)CCN(C)CC2)CC1.[Cl-].[Cl-].[Mn+3].[Mn+4].[O-2].[O-2]` [[Mn2(μ-O)2(μ-CH3COO)(Me4DTNE)]Cl2], the “ΔR* BC-1 bleaching” value in data set [2] (1.0 μM catalyst) is 25.2 (0.1); in data set [2] (2.0 μM catalyst) it was 26.3 (0.1).
Turning to `CN1CCN(C)CCN(C)CC1.CN1CCN(C)CCN(C)CC1.F[P-](F)(F)(F)(F)F.F[P-](F)(F)(F)(F)F.O.[Mn+4].[Mn+4].[O-2].[O-2].[O-2]` [[Mn2(μ-O)3(Me3TACN)2](PF6)2·H2O, [Mn2(μ-O)3(Me3-TACN)2](PF6)2·H2O], in data set [3] (at 20° C.), the water solubility was 10.8 mg/mL. Besides, the solubility in water in data set [3] (in water at 20° C., see WO2006/125517) is on record as 1.08 wt-%. The “appearance after fluidised bed drying (catalyst decomposition)” value in data set [1] (granulation from dilute aqueous solution with PVOH, corn starch, CaSO4) was “dark brown granules”. In addition, the “stability of mixture of catalyst and PVOH in water” value in data set [1] (room temperature) was “not stable”.
